Source: patent publication US20120108641A1, “ANTITUMOR COMBINATION INCLUDING AVE8062 AND SORAFENIB” (SANOFI, priority 2009, published 2012)
Several values for one entry are separate records, joined by “and”; a condition that tells them apart may be missing. Equal entries are not always repeated. Where two headings read alike, the source gives them in different places.

Columns and labels:
[1] = Protocol: (§1) In the case of an early tumour treatment, the implanted animals are distributed randomly in various groups which are, or are not (controls), intended to receive the treatment(s). […] The animals are observed and weighed every day. A dose which induces a weight loss of 20% or more at the lowest point (average of the group) or a mortality of 10% or more is considered to be toxic. The tumour activity is evaluated at the highest non-toxic dose, or at the highest dose tested, within the context of a non-cytotoxic agent.
(§2) Within the context of the following studies, the AVE8062, in hydrochloride form, is formulated in water with 0.9% NaCl.
(§3) The AVE8062 was administered intravenously on days 10 and 14 post tumour implantation. The sorafenib was administered orally from day 10 to day 14. The two agents were administered in combination, according to the same schedules as those used for the agents alone, but the administration of sorafenib having been staggered one hour after the administration of the AVE8062.

[2] = test system: NCI-H460 human non-small cell lung tumour; assay: Study 2: sorafenib administered 1 h after AVE8062, antitumour activity; format: in vivo, female SCID mice
Description: (§4) A product is considered to be active if the log10 cell kill is greater than or equal to 0.7.
as §1
(§5) The tumours are measured 2 or 3 times a week until the tumour reaches approximately 2 g or until the animal dies, if this occurs before the tumour reaches 2 g. The animals are autopsied when they are sacrificed.
(§6) The antitumor activity is determined in accordance with various recorded parameters, such as the dose (mg/kg), the method of administration, the administration time, the toxicity and the log10 cell kill, which depends on the tumour growth delay and also on the tumour doubling time.
as §2
Study 2: Sorafenib Administered 1 h after AVE8062 in the Combination (Table II)
as §3

[3] = test system: NCI-H460 human non-small cell lung tumour; assay: Study 3: sorafenib administered 24 h after AVE8062, antitumour activity; format: in vivo, female SCID mice
Description: as §4
(§7) The activity in this case is acknowledged for a net log cell kill that is positive (>0). A cytostatic activity corresponds to a net log cell kill of 0, that is to say that the treatment time is equal to the duration of the antitumour effect.
as §1, §5, §6, §2
Study 3: Sorafenib Administered 24 h after AVE8062 in the Combination (Table III)
The AVE8062 was administered intravenously on days 9 and 14 post implantation of the NCI-H460 pulmonary tumour in female SCID mice. The sorafenib was administered orally from day 9 to day 20. When the 2 agents were administered in combination, the same schedules were used as for the agents alone, but the administrations of sorafenib were started 24 hours after that of AVE8062.

[4] = Study 3: toxicity, highest non-toxic dose; format: in vivo, female SCID mice; conditions: Study 3, AVE8062 alone i.v. days 9, 14
Protocol: The animals are observed and weighed every day.
The AVE8062 was administered intravenously on days 9 and 14 post implantation of the NCI-H460 pulmonary tumour in female SCID mice.

[5] = test system: NCI-H460 human non-small cell lung tumour; assay: Study 1: sorafenib administered simultaneously with AVE8062, antitumour activity; format: in vivo, female SCID mice; conditions: AVE8062 22.3 mg/kg per injection i.v. days 9, 13
Description: as §4, §7, §1, §5, §6, §2
Study 1: Sorafenib Administered Simultaneously with AVE8062 (Table I)
The AVE8062 was administered intravenously on days 9 and 13 post tumour implantation. The sorafenib was administered orally from day 9 to day 24. When the two agents were administered in combination, the same schedules were used as for the agents alone, the combination of the two agents having been carried out simultaneously on days 9 and 13.

[6] = sorafenib 100.0 mg/kg/admin p.o. days 10-14
[7] = sorafenib 100.0 mg/kg per injection p.o. days 9-20
[8] = AVE8062 22.3 mg/kg/admin i.v. days 10, 14
[9] = AVE8062 22.3 mg/kg per injection i.v. days 9, 14

Question: With `CNC(=O)c1cc(Oc2ccc(NC(=O)Nc3ccc(Cl)c(C(F)(F)F)c3)cc2)ccn1` [Sorafenib, 4-[4-[[4-chloro-3-(trifluoromethyl)phenyl]carbamoylamino]phenoxy]-N-methylpyridine-2-carboxamide] as the compound, how does the “Mortality (day of death)” value [1, 6] read?
Answer: Its value is 0/6.

Question: What about the Observations [2, 6] of the same compound?
Answer: Its Observations is “HDT - Active”.

Question: And the Regressions complete [2, 6]?
Answer: The Regressions complete was 0/6.

Question: What about the Regressions partial [2, 6] of the same compound?
Answer: Its Regressions partial is 0/6.

Question: What about the “T − C” value [2, 6] of the same compound?
Answer: Its value is 6.1 days.

Question: What about the log cell kill [2, 6] of the same compound?
Answer: Its log cell kill is 1.1.

Question: And the CR [3, 7]?
Answer: Its CR is 0/6.

Question: And the Observations [3, 7]?
Answer: Its Observations is “HDT - no cytostasis”.

Question: And the PR [3, 7]?
Answer: Its PR is 0/6.

Question: And the “gross log cell kill” value [3, 7]?
Answer: Its value is 2.4.

Question: And the “net log cell kill” value [3, 7]?
Answer: Its value is −0.4.

Question: What does the source list for `COc1ccc(/C=C\c2cc(OC)c(OC)c(OC)c2)cc1NC(=O)[C@@H](N)CO` [AVE8062, (Z)—N-[2-methoxy-5-[2-(3,4,5-trimethoxyphenyl)vinyl]phenyl]-L-serinamide]?
Answer: highest non-toxic dose (HNTD) [4]: 36 mg/kg per injection; Mortality (day of death) [1, 8]: 0/5; % BWC (day of lowest point) ([1]; AVE8062 22.3 mg/kg/admin i.v. days 10, 14, lowest point day 21): −3.2 (21) %; highest non-toxic dose (HNTD) ([1]; Study 2, AVE8062 alone i.v. days 10, 14): 22.3 mg/kg per injection; Observations [2, 8]: HNTD - active; Regressions complete [2, 8]: 0/5; T − C [2, 8]: 5.8 days; log cell kill [2, 8]: 1.1; Regressions partial ([2]; AVE8062 22.3 mg/kg/admin i.v. days 10, 14, 22.3 mg/kg): without inducing tumour regression and 0/5; CR [3, 9]: 0/6; Observations [3, 9]: Active; PR [3, 9]: 0/6; gross log cell kill [3, 9]: 1.7; net log cell kill [3, 9]: 0.3; CR [5]: 0/6; Observations [5]: Inactive; PR [5]: 0/6; log cell kill [5]: 0.6; net log cell kill [5]: −0.1
